Assays:
Type in all cases: cell-based
[1] = system: human fibrosarcoma HT-1080 cell line; assay: Direct cell adhesion to peptide-coated surfaces; settings: surface coated with 1 μg; human fibrosarcoma (HT1080)
Excerpt: The murine melanoma K-1735-C10 (low metastatic) and K-1735-M4 (high metastatic) cell lines, murine UV-2237-MM fibrosarcoma cell line, human renal carcinoma SN12 C (low metastatic) and SN12 PM-6 (high metastatic) cell lines, and human colon carcinoma KM12 C (low metastatic) and KM12 SM (high metastatic) cell lines were originally provided by Dr. I. J. Fidler (M.D., Anderson Hospital, University of Texas Health Sciences Center, Houston, Tex.). The human fibrosarcoma HT-1080 cell line was obtained from the ATCC. […]
The direct adhesion of cells to protein or peptide coated surfaces was performed as described in Skubitz et al., Exp. Cell Res., 173, 349-360 (1987) and Charonis et al., supra (1988). […] Adherent cells were solubilized and quantitated in a scintillation counter. […] The solubilized cells were then quantitated using a liquid scintillation counter.
Instead of attempting to characterize the cell binding activity of all 14 of the synthetic peptides, a number of peptides from each of the three heparin binding categories of peptides were evaluated. […]
Radiolabeled HT-1080 human fibrosarcoma cells were incubated in the wells for 30 minutes and the adhesion of cells was quantitated.

[2] = system: murine melanoma K-1735-C10 (low metastatic) cell line; assay: Direct cell adhesion to peptide-coated surfaces; settings: surface coated with 1 μg
Excerpt: (§1) The murine melanoma K-1735-C10 (low metastatic) and K-1735-M4 (high metastatic) cell lines, murine UV-2237-MM fibrosarcoma cell line, human renal carcinoma SN12 C (low metastatic) and SN12 PM-6 (high metastatic) cell lines, and human colon carcinoma KM12 C (low metastatic) and KM12 SM (high metastatic) cell lines were originally provided by Dr. I. J. Fidler (M.D., Anderson Hospital, University of Texas Health Sciences Center, Houston, Tex.). The human fibrosarcoma HT-1080 cell line was obtained from the ATCC. The MM fibrosarcoma cell line was maintained in DME (GIBCO Laboratories, Grand Island, N.Y.) containing 10% FBS, the murine melanomas were maintained in DMEM containing 10% calf serum, the human fibrosarcoma cells were maintained in EMEM containing 10% heat inactivated FBS, and the human renal and colon carcinoma cells were grown in EME containing 10% FBS, vitamins, and 1 mM sodium pyruvate. Cells were passaged for 4 to 5 weeks and then replaced from frozen stocks of early passage cells to minimize phenotypic drift. Cells were maintained at 37° C. in a humidified incubator containing 5% CO2.
(§2) The direct adhesion of cells to protein or peptide coated surfaces was performed as described in Skubitz et al., Exp. Cell Res., 173, 349-360 (1987) and Charonis et al., supra (1988). Briefly, radiolabeled cells were added to 96-well microtiter plates coated with various concentrations of synthetic peptides, laminin, or BSA (0.02 μg/well-50 μg/well from 50 μl solutions) for various lengths of time. After the incubation period, loosely or nonadherent cells were removed by washing the wells three times. Adherent cells were solubilized and quantitated in a scintillation counter. More specifically, cultures of cells which were 60-80% confluent were metabolically labeled for 24 hours with the addition of 3 μCi/ml of ^3 H-td (tritiated thymidine). On the day of the assay, the cells were harvested by trypsinization, the trypsin was inhibited by the addition of serum, and the cells were washed free of this mixture and resuspended in DMEM buffered with HEPES at pH 7.2. The adhesion medium also contained 2 mg/ml BSA. The cells were adjusted to a concentration of 3-4×10^4 /ml, and 100 μl of this cell suspension was added to the wells. The assay mixture was then incubated at 37° C. for 120 minutes. At the end of the incubation, the wells were washed with warm DMEM/Hepes containing 2 mg/ml BSA, and the adherent population was solubilized with 0.5N NaOH contained 1% SDS. The solubilized cells were then quantitated using a liquid scintillation counter.
(§3) Instead of attempting to characterize the cell binding activity of all 14 of the synthetic peptides, a number of peptides from each of the three heparin binding categories of peptides were evaluated. Microtiter wells were adsorbed with the peptides, laminin, or BSA and a variety of tumor cell lines were tested for the ability to adhere to the ligands. The eight different cell lines selected for this study were of murine or human origin and, in most cases, of either high or low metastatic capacity. […] Many of the peptides that were very good at binding heparin and cells were also capable of inhibiting the adhesion of various cells to surfaces coated with laminin (see below).

[3] = system: murine UV-2237-MM fibrosarcoma cell line; assay: Direct cell adhesion to peptide-coated surfaces; settings: surface coated with 1 μg
Excerpt: as §1, §2, §3

[4] = system: murine melanoma K-1735-M4 (high metastatic) cell line; assay: Direct cell adhesion to peptide-coated surfaces; settings: surface coated with 1 μg
Excerpt: as §1, §2, §3

[5] = system: human colon carcinoma KM12 C (low metastatic) cell line; assay: Direct cell adhesion to peptide-coated surfaces; settings: surface coated with 1 μg
Excerpt: as §1, §2, §3

[6] = system: human renal carcinoma SN12 PM-6 (high metastatic) cell line; assay: Direct cell adhesion to peptide-coated surfaces; settings: surface coated with 1 μg; human renal (SN12 PM6)
Excerpt: as §1, §2, §3

[7] = system: human renal carcinoma SN12 C (low metastatic) cell line; assay: Direct cell adhesion to peptide-coated surfaces; settings: surface coated with 1 μg; human renal (SN12C)
Excerpt: as §1, §2, §3

[8] = system: HT-1080 human fibrosarcoma cells; assay: Cell spreading assay; settings: wells coated at 100 μg/ml, 2 1/2 hour incubation
Protocol: (§4) Spreading of the adherent cells was evaluated by performing adhesion assays similar to those described above. Twenty-four well tissue culture plates (Becton Dickinson and Co., Lincoln Park, N.J.) were coated with 300 μl of laminin, synthetic peptides, or BSA at 100 μg/ml, then blocked with 2 mg/ml BSA in PBS. Three hundred microliters of a cell suspension at 5×10^4 cells/ml was added to each well, and after a 21/2 hour incubation, nonadherent cells were aspirated out of the wells. Adherent cells were fixed with 2% glutaraldehyde in PBS at 23° C. for one hour. The glutaraldehyde was then removed and the cells were stained by two different techniques. For photographic purposes, the cells were stained with Diff-Quik Solution I (American Scientific Products, McGaw Park, Ill.) for 10 minutes at 23° C. Solution I was removed, then Diff-Quik Solution II was added and the cells were stained for another 10 minutes at 23° C. Wells were washed with PBS, then representative cells were photographed with a Nikon DIAPHOT inverted phase microscope using Panatomic X Film ASA32 (Eastman Kodak, Rochester, N.Y.). Adherent cells to be quantitated for spreading were stained overnight at 23° C. with 500 μl of a solution containing 0.12% (w/v) Coomassie Brilliant Blue R (Sigma Chemical Co.), 5% (v/v) acetic acid, and 50% (v/v) ethanol. Wells were washed three times with 500 μl of PBS and cell spreading was then quantitated by measuring the average surface area occupied by a cell using an Opti-Max Image Analyzer. Thirty cells were measured per well; each experiment was done in quadruplicate and repeated three times. In all cases, the cells spread on the peptides to occupy an area about 60% of that seen on laminin-coated surfaces.

[9] = system: murine fibrosarcoma (MM) cells; assay: Cell spreading assay; settings: wells coated at 100 μg/ml, 2 1/2 hour incubation
Protocol: as §4

[10] = system: human renal (SN12C) cells; assay: Cell spreading assay; settings: wells coated at 100 μg/ml, 2 1/2 hour incubation
Protocol: as §4

[11] = system: human renal (SN12 PM6) cells; assay: Cell spreading assay; settings: wells coated at 100 μg/ml, 2 1/2 hour incubation
Protocol: as §4

In the case of “Laminin: extracellular matrix glycoprotein isolated from the EHS murine tumor; positive control”, the “Percentage of Cells Adhered to Surface” value [1] is reported as 41%, the “Percentage of Cells Adhered to Surface” value [2] is reported as 58% and the “Percentage of Cells Adhered to Surface” value [3] is reported as 53%. The “Percentage of Cells Adhered to Surface” value [4] was 13%, the “Percentage of Cells Adhered to Surface” value [5] was 11% and the “Percentage of Cells Adhered to Surface” value [6] was 36%. The “Percentage of Cells Adhered to Surface” value [7] was 28%, the “Surface Area Occuppied by a Cell” value ([8]; HT-1080, Table VII) was 610 +/- 62 um2 and the “Surface Area Occupied by a Cell” value ([8]; human fibrosarcoma (HT1080), Table VI) was 610 ± 62 μm^2. For the same substance, the “Surface Area Occupied by a Cell” value [9] was 443 ± 32 μm^2, the “Surface Area Occupied by a Cell” value [10] was 520 ± 14 μm^2 and the “Surface Area Occupied by a Cell” value [11] was 550 ± 29 μm^2.

Reference: patent US5266328A, “Laminin a chain polypeptides from the carboxy terminal globular domain” (Regents of the University of Minnesota, priority 1990, dated 1993)
